Measurements reported in PubChem BioAssay AID652019 (Molecular Libraries Program, Specialized Chemistry Center, …, 2013).
Calls of active or inactive are those of the source.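 How the source made its calls: active means compound whose activity held up on retesting over a range of doses, giving a fitted IC50; inactive means the rest.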

Test system: E. coli EV36, T7 phage lysis inhibition, OD600
Assay: inhibition of T7 phage lysis, E. coli EV36, dose response, selectivity assay for bacterial capsule biogenesis inhibitor project, OD600, set 6 (AID 652019)

Cc1cnccc1NC(=O)c1ccc2nc(NC(=O)OC(C)(C)C)sc2c1
IC50: > 50 µM (inactive)

Cc1nc2ccc(C(=O)Nc3cnccc3NC(=O)OC(C)(C)C)cc2s1
IC50: > 50 µM (inactive)

O=C(Nc1ccncc1F)c1ccc2ncsc2c1
IC50: 3.31 µM

O=C(Nc1ccncc1Br)c1ccc2nc(N3CCCC3)sc2c1
IC50: > 50 µM (inactive)

Nc1ccncc1
IC50: > 50 µM (inactive)

CC(C)(C)OC(=O)Nc1ccc(NC(=O)c2ccc3nc(N4CCCC4)sc3c2)cn1
IC50: > 50 µM (inactive)

Cc1nc2ccc(C(=O)Nc3ccncc3)cc2s1
IC50: 2.54 µM

Cc1cnccc1NC(=O)c1ccc2nc(N3CCCC3)sc2c1
IC50: > 50 µM (inactive)

COc1cc(NC(=O)c2ccc3nc(NC(=O)OC(C)(C)C)sc3c2)ccn1
IC50: > 50 µM (inactive)

Cc1nc2ccc(C(=O)Nc3ccncc3Br)cc2s1
IC50: > 50 µM (inactive)

CC(C)(C)OC(=O)Nc1cnccc1NC(=O)c1ccc2nc(N)sc2c1
IC50: > 50 µM (inactive)

CC(C)(C)OC(=O)Nc1nc2ccc(C(=O)Nc3ccnc(Br)c3)cc2s1
IC50: 3.66 µM

CC(C)(C)OC(=O)Nc1nc2ccc(C(=O)Nc3ccnc(Cl)c3)cc2s1
IC50: 0.49 µM

Cc1nc2ccc(C(=O)Nc3ccncc3C)cc2s1
IC50: > 50 µM (inactive)

COc1cc(NC(=O)c2ccc3nc(C)sc3c2)ccn1
IC50: 3.96 µM

Cc1cnccc1NC(=O)c1ccc2nc(N)sc2c1
IC50: > 50 µM (inactive)

Cc1cnccc1NC(=O)c1ccc2ncsc2c1
IC50: 3.58 µM

CC(C)(C)OC(=O)Nc1ccc(NC(=O)c2ccc3nc(NC(=O)OC(C)(C)C)sc3c2)cn1
IC50: > 50 µM (inactive)

Nc1cnccc1NC(=O)c1ccc2ncsc2c1
IC50: > 50 µM (inactive)

Nc1nc2ccc(C(=O)Nc3ccncc3)cc2s1
IC50: > 50 µM (inactive)

CC(C)(C)OC(=O)Nc1nc2ccc(C(=O)Nc3ccnc(F)c3)cc2s1
IC50: 1.16 µM

O=C(O)c1ccc2ncsc2c1
IC50: > 50 µM (inactive)

O=C(Nc1ccnc(Cl)c1)c1ccc2nc(N3CCCC3)sc2c1
IC50: > 50 µM (inactive)

COc1cc(NC(=O)c2ccc3nc(N)sc3c2)ccn1
IC50: 0.94 µM

Cc1cc(NC(=O)c2ccc3nc(NC(=O)OC(C)(C)C)sc3c2)ccn1
IC50: 0.49 µM

O=C(Nc1ccncc1Br)c1ccc2ncsc2c1
IC50: > 50 µM (inactive)

CC(C)(C)OC(=O)Nc1nc2ccc(C(=O)Nc3ccncc3Br)cc2s1
IC50: > 50 µM (inactive)

Cc1nc2ccc(C(=O)Nc3ccnc(F)c3)cc2s1
IC50: > 50 µM (inactive)

Nc1nc2ccc(C(=O)Nc3ccncc3F)cc2s1
IC50: > 50 µM (inactive)

COc1cc(NC(=O)c2ccc3nc(N4CCCC4)sc3c2)ccn1
IC50: > 50 µM (inactive)

CC(C)(C)OC(=O)Nc1cnccc1NC(=O)c1ccc2ncsc2c1
IC50: > 50 µM (inactive)

O=C(Nc1ccnc(Br)c1)c1ccc2nc(N3CCCC3)sc2c1
IC50: > 50 µM (inactive)

O=C(Nc1ccncc1F)c1ccc2nc(N3CCCC3)sc2c1
IC50: > 50 µM (inactive)

CC(C)(C)OC(=O)Nc1nc2ccc(C(=O)Nc3ccncc3)cc2s1
IC50: > 50 µM (inactive)

Cc1nc2ccc(C(=O)Nc3ccncc3F)cc2s1
IC50: > 50 µM (inactive)

O=C(Nc1ccncc1)c1ccc2nc(N3CCCC3)sc2c1
IC50: > 50 µM (inactive)

Cc1cc(NC(=O)c2ccc3nc(N4CCCC4)sc3c2)ccn1
IC50: > 50 µM (inactive)
